Consider one compound from patent US10683273B2, “Compounds as DNA probes, methods and applications thereof” (JAWAHARLAL NEHRU CENTRE FOR ADVANCED SCIENTIFIC RESEARCH, priority 2015, dated 2020).

The test system of one test is P. falciparum strain 3D7. The experiment in a line: Live fluorescence imaging of malaria parasites. The class given is cell-based, Plasmodium falciparum. The following applies: 0.5 μM, early trophozoite stage, 30 min. How it is done: P. falciparum strain 3D7 is cultured. Briefly, malaria parasites are cultured in human erythrocytes in T75 flasks with RPMI 1640 (Gibco) supplemented with 10 μg/mL gentamicin (Sigma), 50 μg/mL ampicillin, 0.2% NaHCO3 (Sigma), 0.5% albumax (Invitrogen) and Hypoxanthine (27 mg/L). The culture is maintained under standard conditions (37° C. in 90% nitrogen, 5% CO2, and 5% O2). For synchronization of the parasites, ring-staged parasites are treated with 5% sorbitol at 37° C. for about 5-10 min, followed by washing with pre-warmed incomplete medium twice, and placed back in complete medium. QCy-DT probe (resuspended in Mili-Q water) is added to parasites (25±2 hpi) at a final concentration of 0.5 μM and the parasites are incubated for 30 min at 37° C. Following treatment fluorescence imaging of the parasites is performed using Carl Zeiss AXIO Imager Z1 and the software used for image capturing was AxioVision Rel. 4.8.

In another test the test system is MCF-7 cells. The experiment in a line: Fluorescence study in live cells. It is filed as cell-based. The following applies: live MCF-7 cells, 0.5 and 1 μM, 60 min. Here is the method:
MCF-7 cells are propagated on 20 mm cover slips in a 6-well plate in DMEM medium supplemented with 10% fetal bovine serum at about 37° C. in a humidified atmosphere containing 5% CO2 till 80% confluency is achieved. Cells are incubated for about 60 min with probe QCy-DT (resuspended in Mili-Q water) at various concentrations (0.5 μM and 1 μM) in a humidified CO2 incubator at about 37° C. Milli-Q water is used as a vehicle control. Following the treatment, fluorescence microscopy is performed using Carl Zeiss AXIO Imager Z1 and the software used for image capturing is AxioVision Rel. 4.8.
(§1) In order to check its permeability, cellular uptake studies are carried out in live and fixed conditions of MCF-7 and HeLa cells, respectively. First, MCF-7 cells are incubated with probe QCy-DT (0.5 and 1 μM) without fixing, and live cell imaging is conducted using Carl Zeiss fluorescence microscope as described above. […] Next, HeLa cells are fixed and incubated with QCy-DT (0.5 and 1 μM) along with Hoechst as the control nuclear staining dye. […] Therefore, staining results obtained with live and fixed cells confirmed high cell permeability, efficiency (low staining concentration of 1 μM), and preferential targeting of cell nuclear DNA.

A further test deals with CT-DNA. The experiment in a line: Switch-on NIR-fluorescence enhancement with DNA. It is filed as binding, Calf. How it is done: All the chemicals, reagents, single-stranded oligos (dA20, dT20, dG20, dC20), self-complementary oligos {d(ATAT)5, (D1)mix, Drew-AT, Calf-Thymus DNA (CT-DNA), (DM1, DM2, DM3, DM4, DM5, DM6 and DM7)}, RNA, were purchased from Sigma-Aldrich. ^1H and ^13C NMR spectra were recorded on a Bruker AV-400 MHz spectrometer with chemical shifts reported as parts per million (ppm) (in DMSO-d6, tetramethylsilane as an internal standard) at 20° C. UV-vis absorption and emission spectra were measured in quartz cuvettes of 1 cm path length. High resolution mass spectra (HRMS) were obtained on Agilent Technologies 6538 UHD Accurate-Mass Q-TOF LC/MS spectrometer. All biophysical studies (UV-vis, fluorescence and Cirular dichroism) are carried out at the concentration 0-5 μM of probe, volume=500 μL, temperature=25° C. and time of incubation=2 minutes. […]
The UV-vis absorption and emission spectra are recorded on Agilent Technologies Cary series UV-vis-NIR absorbance and Cary eclipse fluorescence spectrophotometers, respectively. […] Absorption is monitored at 260 nm with regular 5° C. intervals. Melting temperatures (Tm) of DNA samples are calculated from the first derivatives of the absorption vs. temperature curves (thermal denaturation or melting curves) obtained by monitoring at 260 nm. […]

The test system of another test is HeLa cells. The experiment in a line: Fluorescence study in fixed cells. It is filed as cell-based. The following applies: 0.5 and 1 μM, Hoechst as control. How it is done: HeLa cells are grown on the cover slip for about 24 hours in DMEM medium supplemented with 10% fetal bovine serum at about 37° C. in a humidified atmosphere containing 5% CO2 till 80% confluency is achieved. Then cells are fixed with 4% paraformaldehyde in PBS for 10 min. After rinsing twice with PBS, HeLa cells are treated separately with probe QCy-DT at various concentrations (0.5 μM and 1 μM) for 10 min at room temperature. Subsequently, cover slips are incubated with Hoechst 33258 at 10 μg/mL for nuclear staining. Fluorescence images are taken by Carl Zeiss Laser Scanning Microscope (LSM510 META).
as §1

On to `C[n+]1c(/C=C/c2ccc(O)c(/C=C/c3sc4ccccc4[n+]3C)c2)sc2ccccc21` [QCy-DT, quinone cyanine-dithiazole], for which, in the test on P. falciparum strain 3D7, the parasite staining result is “specifically stain the parasite nuclei”. The “cellular uptake / nuclear staining” value in the test with MCF-7 cells is recorded as “selective staining of the cell nucleus”. The fluorescence enhancement in the test on CT-DNA was around 40 fold. Besides, the nuclear staining result in the test with HeLa cells was “selective staining of the cell nucleus, and remarkable co-localization with Hoechst dye”.
